Experimental data reported in the NIST ThermoML archive (doi:10.1016/j.jct.2008.10.008).

Columns and labels:
[1] = Crystal; Adiabatic calorimetry
[2] = Molar enthalpy of transition or fusion; conditions: Crystal
[3] = molar heat capacity at saturation pressure

CC(C)(C)c1ccccc1 [(1,1-dimethylethyl)benzene]
Conditions | Molar enthalpy of transition or fusion [kcal/mol] | Triple point temperature [K]
[1] | – | 215.31
[2] | 2.0062 | –

molar heat capacity [J/K/mol], [3]
Conditions | Crystal | Liquid
5 K | 0.72 | –
5.009 K | 0.72 | –
5.752 K | 1.09 | –
6.678 K | 1.68 | –
7.653 K | 2.44 | –
8.667 K | 3.35 | –
9.709 K | 4.46 | –
10 K | 4.79 | –
10.84 K | 5.76 | –
12.09 K | 7.28 | –
13.47 K | 9.104 | –
14.96 K | 11.15 | –
16.6 K | 13.48 | –
18.41 K | 16.04 | –
20 K | 18.27 | –
20.41 K | 18.84 | –
22.63 K | 21.93 | –
25.1 K | 25.19 | –
27.86 K | 28.67 | –
30 K | 31.19 | –
30.93 K | 32.24 | –
34.35 K | 35.9 | –
38.17 K | 39.64 | –
40 K | 41.3 | –
42.44 K | 43.41 | –
47.2 K | 47.28 | –
50 K | 49.43 | –
52.43 K | 51.23 | –
53.45 K | 51.95 | –
58.21 K | 55.36 | –
58.43 K | 55.52 | –
60 K | 56.6 | –
64.04 K | 59.39 | –
70 K | 63.57 | –
70.32 K | 63.81 | –
77.32 K | 68.59 | –
80 K | 70.45 | –
84.98 K | 73.93 | –
87.08 K | 75.43 | –
90 K | 77.44 | –
93.34 K | 79.79 | –
93.37 K | 79.85 | –
100 K | 84.51 | –
101.27 K | 85.43 | –
102.4 K | 86.21 | –
110.41 K | 91.89 | –
111.86 K | 92.92 | –
120 K | 98.68 | –
120.01 K | 98.72 | –
129.8 K | 105.69 | –
139.62 K | 112.79 | –
140 K | 113.02 | –
149.52 K | 119.99 | –
160 K | 127.65 | –
160.53 K | 128.13 | –
162.39 K | 129.37 | –
172.82 K | 137.16 | –
173.48 K | 137.69 | –
180 K | 142.42 | –
185.83 K | 147.07 | –
186.21 K | 147.43 | –
197.14 K | 156.12 | –
200 K | 157.51 | –
203.2 K | 162.61 | –
206.78 K | 167.05 | –
215.31 K | 169.1 | 208.01
220 K | – | 209.58
223.09 K | – | 210.65
223.25 K | – | 210.68
232.46 K | – | 213.79
232.58 K | – | 213.79
240 K | – | 216.6
240.86 K | – | 216.97
253.04 K | – | 221.76
260 K | – | 224.65
265.37 K | – | 226.92
277.79 K | – | 232.27
280 K | – | 233.26
291.32 K | – | 238.42
294.64 K | – | 239.95
298.15 K | – | 241.59
300 K | – | 242.45
305.81 K | – | 245.17
311.47 K | – | 247.82
320 K | – | 251.92
329.17 K | – | 256.4
330 K | – | 256.8
340 K | – | 261.71
347.61 K | – | 265.47
360 K | – | 271.66
365.98 K | – | 274.65
380 K | – | 281.68
384.21 K | – | 283.78
400 K | – | 291.7
402.17 K | – | 292.78
419.78 K | – | 301.62
420 K | – | 301.72
435.18 K | – | 309.12
440 K | – | 311.52
